Test results taken from paper PMC8877593, “Increased Activities against Biofilms of the Pathogenic Yeast Candida albicans of Optimized Pom-1 Derivatives” (Pharmaceutics, 2022).
Ends that are not written are not given here.

Legend:
Format in all cases: cell-based, Candida albicans (ATCC 90028)
C. albicans biofilm [1] = test: Microscopic analysis of treated C. albicans biofilms; conditions: 20 µg/mL, 24 h at 37 °C, transmitted light, compared with untreated and Pom-1 control biofilms
Description: C. albicans biofilms were treated with Pom-1, and its derivatives in comparison to an untreated bifilm control (Figure 4B).
Figure 4 Antifungal activity of Pom-1A to F towards C. albicans biofilms. (A) Determined dose-dependent effect of Pom-1 derivatives on biofilm mass by crystal violet assay with fluconazole and Pom-1 as the control agent. All experiments were performed in triplicate and error bars indicate standard deviations. (B) Microscopic analysis using a Leica DMi8 coded (Leica Microsystems CMS GmbH, Wetzlar, Germany) microscope) of untreated C. albicans biofilm and biofilm treated with Pom-1 and its derivatives (20 µg/mL) after 24 h of incubation at 37 °C under transmitted light. TEXT PRINTED IN THE PICTURE: (A) Pom-1A: IC50: 0.9555 | (A) Pom-1B: IC50: 0.008353 | (A) Pom-1C: IC50: 0.08687 | (A) Pom-1D: IC50: 4.930e-032 | (A) Pom-1E: IC50: 2.893 | (A) Pom-1F: IC50: 0.1570 DOUBTS OF THE COPYIST ABOUT THIS PICTURE: Pom-1A, IC50: small print, 0.9555 could be 0.9535 or 0.9556 / Pom-1B, IC50: small print, 0.008353 digits 8/3/5 not certain / Pom-1C, IC50: small print, 0.08687 digits 8/6 not certain / Pom-1D, IC50: small print, 4.930e-032 digits 9/3 not certain / Pom-1E, IC50: small print, 2.893 digits 8/9/3 not certain / Pom-1F, IC50: small print, 0.1570 digit 5 not certain

C. albicans biofilm [2] = test system: C. albicans biofilm; set-up: semi inhibitory concentration (IC50) of biofilm formation / IC50 Values against Biofilm Formation: unit not given here; conditions: for semi inhibitory concentration (IC50) of biofilm formation / IC50 Values against Biofilm Formation: C. albicans, crystal violet, 24 h, 37 °C, 2.5–20 µg/mL, Hill fit, triplicate; for semi inhibitory concentration (IC50) of biofilm formation: Figure 4A; for IC50 Values against Biofilm Formation: without agitation, Table 1 (rounded); for Antimicrobial Activity against C. albicans Biofilm [%] Based on IC50 Values: in comparison to Pom-1 (= 100%), from IC50 values
Description: The analysis of the antifungal effect of the peptides on biofilm followed the same conditions as described previously. In brief, 2.5 × 10^3 yeast cells were incubated in 200 µL RPMI-1640 medium with L-glutamine in flat-bottomed polystyrene microtiter plates with 96 wells (Sarstedt AG and Co. KG, Nümbrecht, Germany) with the respective peptides at different concentrations (2.5–20 µg/mL) for 24 h at 37 °C, but without agitation. The quantification of the biofilm took place due to a crystal violet assay, which was originally developed by George O’ Toole for bacteria and was adapted for Candida biofilms. For this, the planktonic phase in the wells was removed and the biofilms were washed twice with 200 µL of demineralized water. Subsequently, the cells in the biofilm were stained for 15 min with 200 µL of a 0.1% (w/v) crystal violet solution. The solution was then removed again and the stained cells were washed twice with 200 µL of demineralized water. Then, the biofilms in the microtiter plate were dried for 24 h at 25 °C. These were then mixed with 200 µL of 30% acetic acid. After 15 min, the stained solution was transferred to a new microtiter plate and the absorbance at 560 nm was measured using a Tecan infinite F200 microplate reader. The data obtained were then graphically identified using a Hill non-linear dose-response equation and the semi-inhibitory concentration (IC50) was determined, at which 50% of the biofilm was not formed compared to the untreated control.
In order to evaluate the potential of the novel Pom-1A-F peptides, the well established crystal violet assay for microbial cultures in microtiter plates was performed to quantify the biomass formed.

[3] = test system: planktonic C. albicans cells; test: Resazurin reduction / viability assay on planktonic C. albicans cells (broth microdilution, CLSI M27-A3); conditions: for Antimycrobial Activity against Planktonic C. albicans Cells [%] at 20 µg/mL: in comparison to Pom-1 (= 100%), 20 µg/mL peptide; for inhibition of cell viability: planktonic C. albicans, 2.5 × 10^3 cells per well, 20 µg/mL, 24 h, 37 °C, RPMI-1640, resazurin fluorescence, vs untreated cells, triplicate
Description: The viability of treated C. albicans cells with Pom-1A to F was determined according to the Clinical and Laboratory Standards Institute guidelines (M27-A3) for the broth microdilution assay. For this, 2.5 × 10^3 yeast cells were incubated in 200 µL of RPMI-1640 medium (supplemented with L-glutamine) in the presence of various concentrations of Pom-1A to F (2.5–20 µg/mL) in flat-bottomed polystyrene microtiter plates with 96 wells (Sarstedt AG and Co. KG, Nümbrecht, Germany) at 37 °C with shaking at 900 rpm on an Eppendorf shaker. Quantitation of viable yeast cells was performed using a Resazurin-reduction-Assay. For this, yeast cells were incubated with 20 µL of 0.15 mg/mL resazurin solution for 2 h. During this time, the viable cells were able to reduce the resazurin to resorufin. […] For this purpose, a dilution series was prepared for each sample in RPMI 1640 medium and 1 µL was added to Sabouraud agar plates, which were then incubated for 24 h at 37 °C, respectively. To determine the antifungal effect of the peptide derivatives on planktonic C. albicans cells, different concentrations (2.5–20 µg/mL) of the peptides were applied to fixed cell numbers (2.5 × 10^3 cells per well) and were incubated for 24 h in a suspension microtiter plate.

[4] = test system: C. albicans planktonic cells; test: Plate spot assay (colony formation after treatment of planktonic cells); conditions: after 24 h incubation with peptide (2.5–20 µg/mL), dilutions spotted on Sabouraud agar, further 24 h at 37 °C
Description: The viability of treated C. albicans cells with Pom-1A to F was determined according to the Clinical and Laboratory Standards Institute guidelines (M27-A3) for the broth microdilution assay. For this, 2.5 × 10^3 yeast cells were incubated in 200 µL of RPMI-1640 medium (supplemented with L-glutamine) in the presence of various concentrations of Pom-1A to F (2.5–20 µg/mL) in flat-bottomed polystyrene microtiter plates with 96 wells (Sarstedt AG and Co. KG, Nümbrecht, Germany) at 37 °C with shaking at 900 rpm on an Eppendorf shaker. Quantitation of viable yeast cells was performed using a Resazurin-reduction-Assay. For this, yeast cells were incubated with 20 µL of 0.15 mg/mL resazurin solution for 2 h. During this time, the viable cells were able to reduce the resazurin to resorufin. […] The data obtained were subsequently identified in a Hill nonlinear dose-response equation and the semi-inhibitory concentration (IC50) could be determined, at which the cell viability was reduced by 50% compared to the untreated control. In addition, after incubation, 1 µL cell suspension was taken from each well of the microtiter plate to visually confirm the graphical results in a plate spot assay. For this purpose, a dilution series was prepared for each sample in RPMI 1640 medium and 1 µL was added to Sabouraud agar plates, which were then incubated for 24 h at 37 °C, respectively.
For this purpose, 1 µL cell suspension was taken from each well before adding the resazurin solution from the suspension microtiter plate. This sample was then diluted and was added to a Sabourand agar plate, which was then incubated for an additional 24 h for colony formation.

Compound | biofilm cell density / surface coverage by microscopy (C. albicans biofilm [1]) | semi inhibitory concentration (IC50) of biofilm formation (C. albicans biofilm [2]) | IC50 Values against Biofilm Formation (C. albicans biofilm [2]) | Antimicrobial Activity against C. albicans Biofilm [%] Based on IC50 Values (C. albicans biofilm [2]) [%] | Antimycrobial Activity against Planktonic C. albicans Cells [%] at 20 µg/mL [3] [%] | inhibition of cell viability [3] | colony formation in plate spot assay [4]
AIGSGLFGGAKLIKIKKYI [Pom-1F] | slightly higher surface coverage | 0.1570 | 0.16 | 2375 | 82 |  | 
OC(Cn1cncn1)(Cn1cncn1)c1ccc(F)cc1F [fluconazole, reference compound] |  |  |  |  |  | up to 70% | 
AGSIAWAIGSGLFGGAKLIKIKKY [Pom-1C] |  | 0.08687 | 0.08 | 4750 | 100 |  | 
KCAGSIAWAIGSGLFGGAKLIKIKK [Pom-1E] | slightly higher surface coverage | 2.893 | 2.89 | 131 | 153 |  | 
KCAGSIAWAIGSGLFGGAKLIKIKKY [Pom-1B] |  | 0.008353 | 0.008 | 47500 | 160 | up to 70% | colony formation decreased with the increase of peptide concentrations
H-KCAGSIAWAIGSGLFGGAKLIKIKKYIAELGGLQ-OH [Pom-1] | significant reduction |  | 3.8 | 100 | 100 |  | 
IGSGLFGGAKLIKIKKYI [Pom-1A] |  | 0.9555 | 0.95 | 400 | 133 |  | colony formation decreased with the increase of peptide concentrations
IGSGLFGGAKLIKIKKYIA [Pom-1D] |  |  |  |  | 97 |  | colony formation decreased with the increase of peptide concentrations
